Data from patent publication EP0840781B1, “METHODS AND DEVICES FOR THE REMOVAL OF PSORALENS FROM BLOOD PRODUCTS” (Cerus Corporation, priority 1995, dated 1996).
Marks after values point to notes of the source that are not given here.

How the values were obtained:
platelets [1] = experiment: Platelet morphology score; format: cell-based, human; conditions: T = test unit (150 µM S-59, 3 Joules/cm^2 UVA, RD 8 hours on day 1)
Procedure: (§1) For the evaluation of in vitro platelet function, platelet samples were withdrawn from both the control and test units before treatment and after treatment on days 2, 5, and 7. The following parameters were analyzed: pH, pO2, pCO2, bicarbonate concentration, platelet count, morphology, aggregation, platelet shape change, hypotonic shock response, lactate production, glucose consumption, ATP secretion, p-selectin expression, and microvesicle formation. Several of these assays, including pH, morphology score, platelet shape change, and hypotonic shock response, have been reported in the literature to correlate with in- vivo post-transfusion recovery and survival. The Student's paired t-test was used for statistical analysis.

[2] = test system: GMP-140 expression on platelets; experiment: GMP-140 (p-selectin) expression on platelets, CD62 antibody, flow cytometry; format: cell-based, human; conditions: T = test unit (150 µM S-59, 3 Joules/cm^2 UVA, RD 8 hours on day 1)
Procedure: (§2) To measure the effects of the present compounds and methods of decontamination on platelet function using these four indicators, four samples were prepared for each compound tested, two control samples and two containing compound. […] These were each transferred under sterile conditions to 50 ml centrifuge tubes, then aliquots of each unit were transferred into a second set of 50 ml sterile centrifuge tubes. […] The samples were pipetted gently up and down to mix. […] Samples were treated in one of two different sized bags, having either 3 ml or 8 ml capacity. […] For each compound tested, two control samples without compound were prepared by again removing aliquots of platelet concentrate (17 ml if using an 8 ml bag, 4 ml if using a 3 ml bag) from the same one of the first set of 50 ml centrifuge tubes from which the compound sample was drawn, and dividing into Medibags, as before. […]

platelet concentrate = experiment: Maintenance of pH of platelet concentrate; format: cell-based, human; conditions: T = test unit (150 µM S-59, 3 Joules/cm^2 UVA, RD 8 hours on day 1)
Procedure: as §2

[3] = HPLC analysis of residual S-59 and photoproducts in PC after UVA and 8-hour treatment with RD containing Dowex XUS-43493; format: physicochemical
Procedure: Briefly, the assay involved an initial sample preparation which lyses the platelets and solubilizes the S-59 and photoproducts. The supernatant from the sample preparation was then analyzed on a C-18 reverse phase column with a gradient of increasing methanol in KH2PO4 buffer. The major peaks were detected by optical absorbance. […] Samples of the treated PC were then taken and subjected to HPLC for detection of residual S-59 and S-59 photoproducts. Post-incubation levels of photoproducts D, E, and F (S-59) are presented in Table N; photoproducts A, B, C, and G were not detectable by HPLC. Levels of residual photoproducts are average values taken from six independent, photochemically- and RD-treated platelet units. […] The PC was assayed for unbound photoproducts using the HPLC assay discussed above, which quantifies the photoproducts present both within the platelets and in the plasma/PAS III mixture. […] In addition to assaying the complete PC, samples were centrifuged to remove the platelets so that unbound photoproducts in the plasma/PAS III could be analyzed separately. […] To evaluate the efficacy of the RD for reducing the concentration of S-59. platelet samples from the test unit were analyzed for S-59 content by HPLC. […] The concentration of S-59 before and after UVA illumination and the reduction in the concentration of residual S-59 following RD treatment were measured by HPLC analysis. […]

platelets [4] = experiment: ATP content / ATP secretion of platelets; format: cell-based, human; conditions: T = test unit (150 µM S-59, 3 Joules/cm^2 UVA, RD 8 hours on day 1)
Procedure: Samples were removed from the units after 24 hours and were analyzed for platelet count and pH. After 5 days, samples were taken and also analyzed for platelet count and pH, as well as ATP content and activation by GMP-140. Controls included a sample of PCD-treated PC without adsorbent (no-adsorbent control) and a sample of PC that was not treated. The results for each of the platelet function assays are present in Table G (the "*" In Table G indicates a contact time of three hours only). TABLE G
as §1

platelets [5] = experiment: Platelet aggregation (ADP and collagen, aggregometer); format: cell-based, human; conditions: for (%) Aggregation: T = test unit (150 µM S-59, 3 Joules/cm^2 UVA, RD 8 hours on day 1)
Procedure: To measure the effects of the present compounds and methods of decontamination on platelet function using these four indicators, four samples were prepared for each compound tested, two control samples and two containing compound. […] These were each transferred under sterile conditions to 50 ml centrifuge tubes, then aliquots of each unit were transferred into a second set of 50 ml sterile centrifuge tubes. […] The samples were pipetted gently up and down to mix. […] Samples were treated in one of two different sized bags, having either 3 ml or 8 ml capacity. […] For each compound tested, two control samples without compound were prepared by again removing aliquots of platelet concentrate (17 ml if using an 8 ml bag, 4 ml if using a 3 ml bag) from the same one of the first set of 50 ml centrifuge tubes from which the compound sample was drawn, and dividing into Medibags, as before. […] Then all experimental and control Medibags were placed on a platelet shaker for storage for 5 days.

platelets [6] = experiment: Hypotonic shock response (HSR) of platelets; format: cell-based, human; conditions: T = test unit (150 µM S-59, 3 Joules/cm^2 UVA, RD 8 hours on day 1)
Procedure: as §1

[7] = test system: Chinese hamster ovary (CHO) cells; experiment: In vitro genotoxicity screen in CHO cells (toxic dose); format: cell-based; conditions: approximately 3 hours exposure in the dark, dilutions 1-1000 µg/ml
Source text: The positive control was methylmethane sulfonate.
Coverslips were mounted with Permount.

Question: What does the source list for `Cc1oc2c(C)c3oc(=O)cc(C)c3cc2c1COCCN` [Compound 2, 4'-(4-amino-2-oxa)butyl-4,5',8-trimethylpsoralen]?
Answer: Morphology (Out Of 400) (platelets [1]; Day 2): 302±16; Morphology (Out Of 400) (platelets [1]; Day 5): 290±20; Morphology (Out Of 400) (platelets [1]; Day 7): 274±12; (%) p-Selectin-Positive ([2]; Day 2): 49±5 %; (%) p-Selectin-Positive ([2]; Day 5): 58±5%; (%) p-Selectin-Positive ([2]; Day 7): 60±7%; pH (platelet concentrate; Day 2): 6.94±0.05; pH (platelet concentrate; Day 5): 6.92±0.06; pH (platelet concentrate; Day 7): 6.91±0.05; % Residual S- 59 ([3]; Post 3 Joule/cm^2 UVA Illumination, of the initial S-59 remained unreacted): 20.5 ± 2.3%; µM S-59 ([3]; Pre-Treatment (0 Joule/cm^2), platelet concentrate, HPLC): 145 ± 10 µM; ATP (platelets [4]; Day 2): 1.0±0.1 Nmoles Per 10* Platelets; ATP (platelets [4]; Day 5): 0.7±0.2 Nmoles Per 10* Platelets; ATP (platelets [4]; Day 7): 0.6±0.2 Nmoles Per 10* Platelets; reduction in aggregation from the day 1 control (platelets [5]; 100 µM compound, 5 Joules/cm^2, 5 days storage (FIG. 21B)): approximately 8%; (%) Aggregation (platelets [5]; Day 2): 88±4%; (%) Aggregation (platelets [5]; Day 5): 81±7%; (%) Aggregation (platelets [5]; Day 7): 81±4%; (%) HSR (platelets [6]; Day 2): 52±5 %; (%) HSR (platelets [6]; Day 5): 45±3%; (%) HSR (platelets [6]; Day 7): 48±8%

Question: Which “genotoxic (toxic) dose” value [7] does the source give for `Cc1oc2c(C)c3oc(=O)cc(C)c3cc2c1CN` [AMT, 4'-Aminomethyl-4,5',8-trimethylpsoralen, reference compound] here?
Answer: 30 µg/mL
